# Conditions: buffer; pH 7.4; 200.0 µM
row,SMILES,solubility kinetic [mg/mL]
1,COc1cccc(NC(=O)c2c([N+](=O)[O-])cnn2C)c1,> 0.0414
2,N#C/C(=C\c1ccc(O)cc1)C(=O)N1CCCC1,0.0301
3,COc1ccc2[nH]cc(C(=O)CN3CCCC(C)(C)C3)c2c1,> 0.0451
4,COc1ccc(C(=O)Nc2cc(C)c(NC(=O)c3ccccn3)cn2)cc1,0.0019
5,O=C(NCc1ccco1)/C(=C/c1ccc(Cl)cc1)NC(=O)c1ccco1,0.004
6,Cc1ccccc1CN(C)C(C)C(=O)Nc1ccccc1F (centres undefined),0.0081
7,Cc1ccc(C(=O)C[n+]2ccccc2)cc1.[I-],> 0.0509
8,COc1cc([N+](=O)[O-])ccc1NC(=O)NCc1ccccn1,> 0.0453
9,O=C1NC(c2cccc([N+](=O)[O-])c2)=CCN1c1ccccc1O,0.0452
10,Cc1cc(NC(=O)CSc2ncnc3sccc23)no1,0.0193
11,N#Cc1ccccc1CSc1ncccc1C(=O)O,> 0.0405
12,Cc1ccccc1Nc1c(-c2ccccc2)nc2ncccn12,0.0081
13,CS(=O)(=O)N(CC(=O)N1CCOCC1)c1cccc([N+](=O)[O-])c1,> 0.0515
14,O=S(=O)(c1ccccc1)c1nc(-c2ccccc2)oc1N1CCOCC1,0.0012
15,C#CC(C)(CC)NC(=O)c1cc2cccc(CC=C)c2oc1=O (centres undefined),0.0008
16,O=C(CCCc1c[nH]c2ccccc12)Nc1ncccc1O,0.0359
17,O=C(O)/C=C/C(=O)NCC1CCC(CNC(=O)/C=C/C(=O)O)CC1 (centres undefined),> 0.0508
18,O=C(Nc1nnc(C2CC2)s1)C1COc2ccccc2O1 (centres undefined),> 0.0455
19,Nc1ccn(C2CC(O)C(CO)O2)c(=O)n1 (centres undefined),> 0.0341
20,COc1ccccc1NC(=O)NCCN1CCNC1=O,0.0397
21,CCC1(C)NC(=O)N(/N=C/c2ccc(C)s2)C1=O (centres undefined),> 0.0398
22,O=C(COC(=O)CNC(=O)c1ccc(Cl)c([N+](=O)[O-])c1)NC(=O)c1ccccc1,0.0529
23,Cc1occc1C(=O)Nc1ccc(OCc2ccccc2)cc1,0.0021
24,CSc1ccccc1NC(=O)COc1ccccc1C,< 0.0006

row,SMILES,solubility kinetic [mg/mL]
1,COc1cc(SC)ccc1C(=O)OCC(=O)NC1CCCCC1,0.0022
2,CCCN1C(=O)c2ccccc2NC1c1ccc(Cl)c(Cl)c1 (centres undefined),0.0119
3,O=C(Nc1c(-c2cccs2)nc2ccccn12)c1ccccc1F,0.0471
4,COC(=O)C(C)Oc1ccc(-c2nccc(-c3ccccn3)n2)cc1 (centres undefined),0.0033
5,Cc1ccccc1-n1c(=O)n(Cc2ccco2)c(=O)c2[nH]cnc21,> 0.0483
6,COc1ccc(C(=O)OCC(=O)NC2CCCCCCC2)cc1OC,0.029
7,O=C(NCc1ccco1)/C(=C\c1cccs1)NC(=O)c1ccccc1,> 0.0529
8,Cc1ccc(SCC(=O)Nc2ccc3c(c2)C(=O)N(C)C3=O)cc1,0.0032
9,CCOC(=O)c1[nH]cnc1C(=O)Nc1ccccc1,0.0114
10,COc1ccc(-c2cn3cc([N+](=O)[O-])ccc3n2)cc1OC,0.0166
11,Cc1c(C(=O)N2CCC[C@H]2CO)oc2c(F)cccc12,0.037
12,O=S(=O)(Nc1ccccc1Cl)c1cccc2nsnc12,> 0.0489
13,CCOC(=O)c1sc(NC(=O)C2=COCCO2)c(C#N)c1C,0.0135
14,COc1ccc(CC(=O)Nc2ccccc2-c2ccccc2)cc1OC,0.0439
15,O=C1/C(=C/c2ccc(F)cc2)Oc2cc(OC(=O)N3CCOCC3)ccc21,< 0.0008
16,CC(C)OP(=O)(OC(C)C)C(Nc1ccc(C(=O)O)cc1)c1ccccc1 (centres undefined),> 0.0587
17,Cc1ccc(NC(=O)CN2CCOCC2)cc1Cl,> 0.0403
18,Cc1ccccc1NC(=S)N(Cc1cccs1)C1CCCC1,0.0133
19,CN(C(=O)COC(=O)Cc1ccc(Cl)cc1)C1CCCCC1,> 0.0486
20,CCSc1nsc(NC(=O)Nc2ccccc2F)n1,0.0014
21,O=C(CCc1ccccc1)N1CCCC(Nc2ccc(F)cc2)C1 (centres undefined),0.0414
22,CC(=O)Nc1ccc(N/C=C/C(=O)c2ccc(Br)cc2)cc1,0.001
23,CC(C)CC(=O)N1CCN(Cc2ccc(Br)cc2)CC1,0.0281
24,Cc1nc(N2CCC(C(N)=O)CC2)c2c(-c3cccs3)csc2n1,> 0.0538

row,SMILES,solubility kinetic [mg/mL]
1,O=C1N(c2ccccc2)CCN1c1ccccc1,< 0.0003
2,O=C(Nc1ccc(O)cc1)c1ccccc1OCc1ccccc1,< 0.0007
3,CCCCOc1cc(CC2CNC(=O)N2)ccc1OC (centres undefined),> 0.0418
4,CCc1ccc(OCC(=O)O/N=C(\N)c2ccccn2)cc1,0.0379
5,Cc1ccc(C(=O)OCC(=O)N2CCCCCC2)cc1S(=O)(=O)N1CCOCC1,> 0.0637
6,CC(C)NS(=O)(=O)c1ccc(NC(=O)Cc2ccsc2)cc1,> 0.0508
7,CCn1c(SCCN2CCOCC2)nc2c1c(=O)n(C)c(=O)n2C,> 0.053
8,CC(=O)N(CCC(c1ccco1)C(C)C)Cc1ccc(OC(C)C)cc1 (centres undefined),0.0195
9,N#C/C(=C(/O)COC(=O)c1ccc(O)cc1)c1nc2ccccc2[nH]1,0.009
10,O=C(Nc1sc2c(c1C(=O)NCCCO)CCCC2)c1ccccc1,0.0016
11,C=C(C)CN(CC)Cc1c(C(=O)N(C)CCCC)nc2ccccn12,> 0.0514
12,CC(C)c1ccccc1OCCCCN1CCCCC1,0.0371
13,O=C(NCc1ccc2c(c1)OCO2)C(=S)N1CCOCC1,> 0.0463
14,Cc1ccccc1CNCc1ccc2c(c1)OCO2.O=C(O)C(=O)O,> 0.0518
15,CCOC(=O)C(=O)N/N=C(/c1ccccc1)c1ccc(OC)cc1,> 0.049
16,COc1ccc(-n2c(C)cc(/C=C3\SC(=O)NC3=O)c2C)cc1,0.0039
17,COc1ccc(NC(=O)CCc2ccc(OC)c(OC)c2)cn1,> 0.0475
18,CC(=O)/C=C/c1ccccc1Oc1c(F)c(F)nc(F)c1F,0.0178
19,CC(=O)c1ccc(NC(=O)COC(=O)CCC2CCCC2)cc1,0.017
20,Cc1ccccc1Cn1c(-c2ccc(=O)[nH]c2)nc2ccccc21,0.0278
21,CCCCS(=O)(=O)N1CCCC(C(=O)Nc2ccc(Cl)cn2)C1 (centres undefined),0.0199
22,Nc1cc2nc3ccccc3nc2cc1N,0.0051
23,CSc1nc2sc3c(c2c(=O)n1CC(C)C)CC(C)(C)OC3,< 0.0004
24,CCc1ccc(OCC(=O)Nc2ccncc2)c(Br)c1,0.0155

row,SMILES,solubility kinetic [mg/mL]
1,O=C(CC(=O)NCc1ccccc1)NCc1ccccc1,> 0.0424
2,O=C1CN(C(=O)CNCc2ccccc2)c2ccccc2N1,0.0339
3,O=Cc1cccn1-c1nccc(-c2ccco2)n1,0.0247
4,Cn1c(=O)n(CC(=O)O)c(=O)c2c1nc1n2CCCN1Cc1ccccc1,0.0513
5,C=CCNC(=S)NNC(=O)C(CC(C)C)CC(C)O (centres undefined),> 0.0431
6,CC(CCn1cccn1)NC(=O)CCc1nnc(C2CCCCC2)o1 (centres undefined),> 0.0518
7,O=C(Cc1ccccc1)Nc1ccc(NC(=O)c2cccs2)cc1,< 0.0004
8,O=C(COC(=O)c1ccc([N+](=O)[O-])cc1)NC12CC3CC(CC(C3)C1)C2,0.0033
9,COc1ccc(CNCc2ccncc2)c(OC)c1.Cl,> 0.0442
10,CSc1ncccc1C(=O)NC1CCCCCCC1,0.0217
11,CCCc1cnc(N2CCN(C(=O)c3ccc(F)cc3)CC2)nc1,> 0.0493
12,CCc1ccc(N2C(=O)C3CCCN3C2=S)cc1 (centres undefined),0.0294
13,COc1ccc(NC(=O)Cn2c(=O)oc3ccccc32)cc1,0.035
14,Cc1ccc(N(C(C)C(=O)N2CCCC2)S(C)(=O)=O)cc1 (centres undefined),> 0.0466
15,CSc1oc(-c2cccs2)nc1S(=O)(=O)c1ccccc1,0.0039
16,C#CC(C)(C)NC(=S)NC1CC2C=CC1C2 (centres undefined),0.028
17,COc1cc(NC(=O)c2ccccc2)ccc1NC(=O)Cc1ccccc1,< 0.0004
18,CCC(=O)c1ccc(OCC(=O)Nc2ccc3c(c2)OCCO3)cc1,0.0122
19,CC(/C=C1\SC(=S)N(CC(=O)O)C1=O)=C\c1ccccc1,> 0.0479
20,O=C(c1cc(-c2cccc(O)c2)on1)N1CCCC1,0.0326
21,CCOC(=O)c1cc(C#N)c(Nc2ccccc2OC)nc1C(F)(F)F,< 0.0003
22,COc1ccc(N2CCN(C(=O)COCC(=O)O)CC2)cc1,> 0.0463
23,CC1Nc2ccc(C(=O)NC3CCCCC3)cc2NC1=O (centres undefined),0.0192
24,O=C(CNC(=O)c1cccs1)c1ccc(Br)cc1,0.0179

row,SMILES,solubility kinetic [mg/mL]
1,Cc1cc(/C=C2\SC(=S)N(C)C2=O)c(C)n1-c1cccc(O)c1,0.0004
2,O=C(Nc1ccc(Oc2ccccc2)cc1)N[C@@H](Cc1ccccc1)C(=O)O,> 0.0565
3,O=C(COc1ccc(F)cc1Cl)NC1CCCCCC1,0.0283
4,O=C(CSc1nnc(-c2ccncc2)o1)Nc1nncs1,> 0.0481
5,Cc1ccc(C(C)C)cc1OCC(=O)Nc1ccccc1N1CCCC1,< 0.0004
6,Cc1ccc(S(=O)(=O)N2CCN(C(=O)CNC(=O)c3ccc(Cl)cc3)CC2)cc1,0.0081
7,COc1ccc(-n2c(CCC(=O)O)ccc2-c2ccccc2)cc1,> 0.0482
8,COc1ccc(NC(=O)N2CCc3ccccc3C2)cc1OC,> 0.0469
9,O=C(Cc1ccc(Cl)cc1)Nc1cccnc1,0.0233
10,Cc1ccccc1S(=O)(=O)NCC1CCCO1 (centres undefined),0.0271
11,CS(=O)(=O)N1CCn2c1nc1ccccc12,> 0.0356
12,CCN1CC(CN(C)Cc2nc(Cc3ccccc3)no2)CC1=O (centres undefined),> 0.0493
13,CSc1cccc(CN2CCC(CCC(=O)NC3CC3)CC2)c1,> 0.0499
14,COc1cc(CN2CCN(Cc3cccc(OC)c3OC)CC2)cc(OC)c1,0.0478
15,COC(=O)c1cc(Sc2c(Cl)cccc2Cl)ccn1,0.037
16,CC(C)Oc1ccc(OCCn2c(=S)[nH]c3c(N)ncnc32)cc1,0.0452
17,CC(C)N(CC(N)=O)c1ncnc2sc(-c3ccccc3)cc12,0.0104
18,COC(=O)/C(=N\OCc1ccc(C#N)cc1)c1c(C)nn(C)c1C,> 0.049
19,Cc1cc2sc(NC(=O)c3ccco3)nc2cc1Cl,0.0006
20,CCCC(=O)N1CCN(Cc2nc3cc([N+](=O)[O-])ccc3n2C)CC1,> 0.0518
21,CC(CCc1ccccc1)NC(=O)c1cccc(F)c1 (centres undefined),0.0366
22,COc1ccc(S(=O)(=O)N2CCN(CC(=O)NC(Cc3ccccc3)C(C)=O)CC2)cc1 (centres undefined),> 0.0689
23,CCOC(=O)C1=C(COC(=O)c2cccnc2SC)NC(=O)NC1C (centres undefined),> 0.0548
